Assay: Metabolic stability in pooled liver microsomes
Format: in vitro ADME, human
Settings: 37° C., test compound 1 μM, microsomal protein 0.5 mg/mL, NADPH 1 mM; for half-life at 1 μM: human, pooled liver microsomes, pH 7.6, human liver microsomes, read-out: Stability in human liver microsomes, t1/2
Experimental: The metabolic degradation of the test compound is assayed at 37° C. with pooled liver microsomes from various species. The final incubation volume of 100 μl per time point contains TRIS buffer pH 7.6 at room temperature (0.1 M), magnesium chloride (5 mM), microsomal protein (0.5 mg/mL) and the test compound at a final concentration of 1 μM. Following a short preincubation period at 37° C., the reactions are initiated by addition of beta-nicotinamide adenine dinucleotide phosphate, reduced form (NADPH, 1 mM), and terminated by transferring an aliquot into solvent after different time points. After centrifugation (10000 g, 5 min), an aliquot of the supernatant is assayed by LC-MS/MS for the amount of parent compound. The half-life is determined by the slope of the semi-logarithmic plot of the concentration-time profile.

Row | Stability in human liver microsomes, t1/2 [h] | half-life at 1 μM [h] | Compound
1 | >1.5 |  | O=C(c1ccc2[nH]cnc2c1)N1CCC[C@@H]2c3ccccc3CC[C@@H]21 (relative stereo) [Example 1, (1H-Benzoimidazol-5-yl)-(cis-2,3,4a,5,6,10b-hexahydro-1H-benzo[f]quinolin-4-yl)-methanone]
2 |  | > 0.75 | C[C@]12CCCN(C(=O)c3ccc4[nH]cnc4c3)[C@H]1CCc1ccccc12 (relative stereo) [Example 10, (1H-Benzoimidazol-5-yl)-(cis-10b-methyl-2,3,4a,5,6,10b-hexahydro-1H-benzo[f]quinolin-4-yl)-methanone]
3 |  | > 1.5 | O=C(c1ccc2[nH]cnc2c1)N1CCC[C@@H]2c3cc(F)cc(F)c3CC[C@@H]21 (relative stereo) [Example 20, (1H-Benzoimidazol-5-yl)-(cis-7,9-difluoro-2,3,4a,5,6,10b-hexahydro-1H-benzo[f]quinolin-4-yl)-methanone]
4 |  | > 1.5 | NC(=O)c1ccc2c(c1)CC[C@H]1[C@@H]2CCCN1C(=O)c1ccc2[nH]cnc2c1 (relative stereo) [Example 37, cis-4-(1H-Benzoimidazole-5-carbonyl)-1,2,3,4,4a,5,6,10b-octahydro-benzo[f]quinoline-8-carboxylic acid amide]
5 |  | > 1.5 | N#Cc1ccc2c(c1)CC[C@H]1[C@@H]2CCCN1C(=O)c1ccc2[nH]cnc2c1 (relative stereo) [Example 42, cis-4-(1H-Benzoimidazole-5-carbonyl)-1,2,3,4,4a,5,6,10b-octahydro-benzo[f]quinoline-8-carbonitrile]
6 |  | > 1.5 | N#Cc1ccc2c(c1)[C@H]1CCCN(C(=O)c3ccc4[nH]cnc4c3)[C@H]1CC2 (relative stereo) [Example 91, cis-4-(1H-Benzoimidazole-5-carbonyl)-1,2,3,4,4a,5,6,10b-octahydro-benzo[f]quinoline-9-carbonitrile]
7 |  | 0.367 | CC[C@]12CCCN(C(=O)c3ccc4[nH]cnc4c3)[C@@H]1CCc1ccccc12 (relative stereo) [Example 105, (1H-Benzoimidazol-5-yl)-(trans-10b-ethyl-2,3,4a,5,6,10b-hexahydro-1H-benzo[f]quinolin-4-yl)-methanone]
8 | 0.483 |  | O=C(c1ccc2[nH]cnc2c1)N1CCC[C@@H]2c3ccccc3CC[C@@H]21 [Example 2, (1H-Benzoimidazol-5-yl)-[(4a-S,10b-R)-2,3,4a,5,6,10b-hexahydro-1H-benzo[l]quinolin-4-yl]-methanone]
9 |  | > 1.5 | N#Cc1ccc2c(c1)C[C@H]1[C@@H]2CCCN1C(=O)c1ccc2[nH]cnc2c1 [Example 148, (4a-R,9a-S)-1-(1H-Benzoimidazole-5-carbonyl)-2,3,4,4a,9,9a-hexahydro-1H-indeno[2,1-b]pyridine-7-carbonitrile]
10 |  | > 1.5 | Cc1cc(C(=O)N2CCC[C@@H]3c4cc(C#N)ccc4C[C@@H]32)cc2nc[nH]c12 [Example 152, (4a-R,9a-S)-1-(7-Methyl-1H-benzoimidazole-5-carbonyl)-2,3,4,4a,9,9a-hexahydro-1H-indeno[2,1-b]pyridine-6-carbonitrile]

Further lines, the compound ahead of its results:

Row | Compound | Stability in human liver microsomes, t1/2 [h] | half-life at 1 μM [h]
11 | C[C@]12CCCN(C(=O)c3ccc4[nH]cnc4c3)[C@@H]1CCc1ccccc12 (relative stereo) [Example 11, (1H-Benzoimidazol-5-yl)-(trans-10b-methyl-2,3,4a,5,6,10b-hexahydro-1H-benzo[t]quinolin-4-yl)-methanone] |  | 0.633
12 | O=C(c1ccc2[nH]cnc2c1)N1CCC[C@@H]2c3ccccc3C[C@@H]21 (relative stereo) [Example 93, (1H-Benzoimidazol-5-yl)-(cis-2,3,4,4a,9,9a-hexahydro-indeno[2,1-b]pyridin-1-yl)-methanone] |  | > 1.5
13 | N#Cc1ccc2c(c1)[C@H]1CCCN(C(=O)c3ccc4[nH]cnc4c3)[C@H]1C2 (relative stereo) [Example 106, cis-1-(1H-Benzoimidazole-5-carbonyl)-2,3,4,4a,9,9a-hexahydro-1H-indeno[2,1-b]pyridine-6-carbonitrile] |  | > 1.5
14 | C#Cc1ccc2c(c1)[C@H]1CCCN(C(=O)c3ccc4[nH]cnc4c3)[C@H]1C2 (relative stereo) [Example 155, (1H-Benzoimidazol-5-yl)-(cis-6-ethynyl-2,3,4,4a,9,9a-hexahydro-indeno[2,1-b]pyridin-1-yl)-methanone] |  | 0.467
15 | N#Cc1ccc2c(c1)[C@H]1CCCN(C(=O)c3ccc4[nH]cnc4c3)[C@H]1C2 [Example 107, (4a-R,9a-S)-1-(1H-Benzoimidazole-5-carbonyl)-2,3,4,4a,9,9a-hexahydro-1H-indeno[2,1-b]pyridine-6-carbonitrile] |  | > 1.5
16 | N#Cc1ccc2c(c1)[C@@H]1CCCN(C(=O)c3ccc4[nH]cnc4c3)[C@@H]1C2 [Example 108, (4a-S,9a-R)-1-(1H-Benzoimidazole-5-carbonyl)-2,3,4,4a,9,9a-hexahydro-1H-indeno[2,1-b]pyridine-6-carbonitrile] |  | > 1.5
17 | C[C@H]1CCN(C(=O)c2ccc3[nH]cnc3c2)[C@H]2Cc3ccccc3[C@@H]12 [Example 146, (1H-Benzoimidazol-5-yl)-(cis-4-methyl-2,3,4,4a,9,9a-hexahydro-indeno[2,1-b]pyridin-1-yl)-methanone] |  | > 0.75
18 | Cc1cc2[nH]cnc2cc1C(=O)N1CCC[C@@H]2c3cc(C#N)ccc3C[C@@H]21 [Example 153, (4a-R,9a-S)-1-(6-Methyl-1H-benzoimidazole-5-carbonyl)-2,3,4,4a,9,9a-hexahydro-1H-indeno[2,1-b]pyridine-6-carbonitrile] |  | > 1.5

Source: patent US8497281B2, “Aryl- and heteroarylcarbonyl derivatives of hexahydroindenopyridine and octahydrobenzoquinoline” (Vitae Pharmaceuticals, Inc., priority 2009, dated 2013)
